Key:
NBD1 = biological target: T1, NBD1 (Homo sapiens, UniProt P13569); test: Aggregation analysis using differential static light scattering (DSLS), thermal stability of NBD1 (ΔTagg); type: binding; settings: ΔTagg versus DMSO control, NBD1 0.2 mg/ml
T1 construct: Purified recombinant NBD1 was produced using previously described methods; made in house
Procedure, shortened: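 Purified recombinant NBD1 at 0.2 mg/ml in Tris buffer pH7.6 with 2 mM ATP, 5 mM MgCl2, 2 mM DTT and 1% glycerol was mixed with DMSO-dissolved compounds under mineral oil. Plates were heated at 1° C. per minute to 70° C., light scattering imaged every 0.5° C.; Tagg from curve inflection, minus DMSO-control mean.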

CFTR = biological target: T2, CFTR (Homo sapiens, UniProt P13569, DEL508-508); test: TECC24 AUC fold over DMSO @10 μM, CFTR-mediated transepithelial chloride transport in CF-HBE cells; type: cell-based; settings: test agent AUC divided by DMSO vehicle AUC, primary CF-HBE cells, ΔF508 homozygous donor, 48 hours incubation
T2 construct: Primary human bronchial epithelial cells from a ΔF508 homozygous CF donor; host or cells: primary human bronchial epithelial cells (CF-HBE), ΔF508 homozygous donor
T2 sequence (P13569 with tags, fused parts or gaps DEL508-508): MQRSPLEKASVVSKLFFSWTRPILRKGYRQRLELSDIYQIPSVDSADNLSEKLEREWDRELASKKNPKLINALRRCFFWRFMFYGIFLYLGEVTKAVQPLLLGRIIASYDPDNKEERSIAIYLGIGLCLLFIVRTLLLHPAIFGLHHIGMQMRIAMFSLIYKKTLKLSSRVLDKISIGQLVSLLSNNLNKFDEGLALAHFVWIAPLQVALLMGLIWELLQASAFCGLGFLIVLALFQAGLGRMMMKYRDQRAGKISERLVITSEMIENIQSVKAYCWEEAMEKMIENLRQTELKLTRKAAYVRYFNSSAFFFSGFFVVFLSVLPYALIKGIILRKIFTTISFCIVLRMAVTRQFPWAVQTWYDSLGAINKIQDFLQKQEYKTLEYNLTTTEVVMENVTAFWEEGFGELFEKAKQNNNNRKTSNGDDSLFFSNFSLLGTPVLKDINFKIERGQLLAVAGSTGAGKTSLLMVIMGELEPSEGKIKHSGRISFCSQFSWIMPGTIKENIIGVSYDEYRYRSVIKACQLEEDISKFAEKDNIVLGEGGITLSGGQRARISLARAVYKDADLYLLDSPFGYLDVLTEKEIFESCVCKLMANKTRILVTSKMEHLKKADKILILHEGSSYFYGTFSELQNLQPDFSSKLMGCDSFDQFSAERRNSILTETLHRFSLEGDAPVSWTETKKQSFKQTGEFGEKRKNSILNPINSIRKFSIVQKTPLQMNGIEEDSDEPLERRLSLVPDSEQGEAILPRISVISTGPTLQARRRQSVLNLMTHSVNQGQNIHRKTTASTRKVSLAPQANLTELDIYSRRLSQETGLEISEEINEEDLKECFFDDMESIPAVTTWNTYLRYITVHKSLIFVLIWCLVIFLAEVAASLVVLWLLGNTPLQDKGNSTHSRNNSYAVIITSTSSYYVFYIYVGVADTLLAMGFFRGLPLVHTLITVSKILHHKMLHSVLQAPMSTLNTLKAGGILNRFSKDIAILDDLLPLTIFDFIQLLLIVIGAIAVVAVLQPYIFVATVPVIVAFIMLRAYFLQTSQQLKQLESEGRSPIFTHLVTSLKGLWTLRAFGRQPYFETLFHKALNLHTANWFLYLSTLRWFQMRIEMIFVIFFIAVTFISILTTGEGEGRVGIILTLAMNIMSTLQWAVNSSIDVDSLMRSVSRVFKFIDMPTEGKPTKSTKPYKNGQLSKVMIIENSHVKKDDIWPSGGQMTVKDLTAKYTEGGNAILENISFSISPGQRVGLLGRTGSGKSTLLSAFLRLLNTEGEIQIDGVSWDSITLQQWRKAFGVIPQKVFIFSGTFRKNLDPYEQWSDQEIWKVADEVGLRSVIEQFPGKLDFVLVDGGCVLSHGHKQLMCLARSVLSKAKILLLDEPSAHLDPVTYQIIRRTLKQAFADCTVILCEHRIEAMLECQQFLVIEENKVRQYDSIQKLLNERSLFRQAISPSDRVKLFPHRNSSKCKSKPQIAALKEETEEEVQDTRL
Procedure, shortened: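 Value is ratio of test-agent to DMSO AUC of equivalent transepithelial Cl− current, integrated from forskolin (10 μM) stimulation to CFTR inhibitor-172 (20 μM) block, with benzamil 10 μM present. CF-HBE (ΔF508/ΔF508) cultures had 48 h compound exposure at 10 μM, 36.5° C before recording.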

T1 sequence (P13569 423-646 limits assumed): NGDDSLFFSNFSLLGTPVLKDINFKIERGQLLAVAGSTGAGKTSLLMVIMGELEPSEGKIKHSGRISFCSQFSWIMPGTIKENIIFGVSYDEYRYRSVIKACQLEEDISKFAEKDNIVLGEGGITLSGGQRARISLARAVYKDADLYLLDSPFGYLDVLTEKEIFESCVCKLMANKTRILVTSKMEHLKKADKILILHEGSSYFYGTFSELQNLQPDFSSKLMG

SMILES: Cn1nc2nc1-c1cc(ccc1F)Oc1c(F)cc3[nH]cnc3c1CCS(=O)(=O)CC(C)(C)CCCC2(C)c1cccc(CCC(=O)O)c1 (stereo not shown) [Compound 116, 3-[3-(22,28-Difluoro-3,6,10,10-tetramethyl-12,12-dioxo-24-oxa-12λ6-thia-3,4,17,19,30-pentazapentacyclo[23.3.1.12,5.015,23.016,20]triaconta-1(29),2(30),4,15,17,20,22,25,27-nonaen-6-yl)phenyl]propanoic Acid]
- DSLS 3D (100 μM ΔT) (NBD1): C (a value greater than 10 °C and less than or equal to 25 °C is marked “C”)
- TECC (AUC, 10 μM) (CFTR): A (a TECC value less than 12 is marked “A”)

SMILES: CC(Cc1cccc(C2(C)CCCC(C)(C)CS(=O)(=O)CCc3c(c(F)cc4[nH]ccc34)Oc3cccc(c3)-c3nc2cn3C)c1)C(=O)O (stereo not shown) [Compound 117, 3-[3-(22-Fluoro-3,6,10,10-tetramethyl-12,12-dioxo-24-oxa-12λ6-thia-3,19,30-triazapentacyclo[23.3.1.12,5.015,23.016,20]triaconta-1(29),2(30),4,15,17,20,22,25,27-nonaen-6-yl)phenyl]-2-methyl-propanoic Acid]
- DSLS 3D (100 μM ΔT) (NBD1): C (a value greater than 10 °C and less than or equal to 25 °C is marked “C”)
- TECC (AUC, 10 μM) (CFTR): C (a value between 20 and 80 is marked “C”)

SMILES: Cn1nc2nc1-c1cc(ccc1F)Oc1c(F)cc3[nH]ccc3c1CCS(=O)(=O)CC(C)(C)CCCC2(C)c1ccc2c(c1)CC(C(=O)O)C2 (stereo not shown) [Compound 128, 5-(22,28-Difluoro-3,6,10,10-tetramethyl-12,12-dioxo-24-oxa-12λ6-thia-3,4,19,30-tetrazapentacyclo[23.3.1.12,5.015,23.016,20]triaconta-1(29),2(30),4,15,17,20,22,25,27-nonaen-6-yl)indane-2-carboxylic Acid]
- DSLS 3D (100 μM ΔT) (NBD1): C (a value greater than 10 °C and less than or equal to 25 °C is marked “C”)
- TECC (AUC, 10 μM) (CFTR): A (a TECC value less than 12 is marked “A”)

SMILES: CCOC(=O)C(Cc1cccc(C2(C)CCCC(C)(C)CS(=O)(=O)CCc3c(c(F)cc4[nH]ccc34)Oc3ccc(F)c(c3)-c3nc2nn3C)c1)C(F)F (stereo not shown) [Compound 131, Ethyl 2-[[3-(22,28-difluoro-3,6,10,10-tetramethyl-12,12-dioxo-24-oxa-12λ6-thia-3,4,19,30-tetrazapentacyclo[23.3.1.12,5.015,23.016,20]triaconta-1(29),2(30),4,15,17,20,22,25,27-nonaen-6-yl)phenyl]methyl]-3,3-difluoro-propanoate]
- DSLS 3D (100 μM ΔT) (NBD1): A (an ΔTagg value less than or equal to 5 °C is marked “A”)
- TECC (AUC, 10 μM) (CFTR): B (a value between 12-20 is marked “B”)

SMILES: CC(Cc1cccc(C2(N)CCCC(C)(C)CS(=O)(=O)CCc3c(c(F)cc4[nH]ccc34)Oc3ccc(F)c(c3)-c3nc2nn3C)c1)C(=O)O (stereo not shown) [Compound 138, 3-[3-(6-Amino-22,28-difluoro-3,10,10-trimethyl-12,12-dioxo-24-oxa-12λ6-thia-3,4,19,30-tetrazapentacyclo[23.3.1.12,5.015,23.016,20]triaconta-1(29),2(30),4,15,17,20,22,25,27-nonaen-6-yl)phenyl]-2-methyl-propanoic Acid]
- DSLS 3D (100 μM ΔT) (NBD1): C (a value greater than 10 °C and less than or equal to 25 °C is marked “C”)
- TECC (AUC, 10 μM) (CFTR): C (a value between 20 and 80 is marked “C”)

SMILES: Cn1nc2nc1-c1cc(ccc1F)Oc1c(F)cc3[nH]ccc3c1CCS(=O)(=O)CC(C)(C)CCCC2(C)c1cccc(O)c1 (stereo not shown) [Compound 154, 3-(22,28-Difluoro-3,6,10,10-tetramethyl-12,12-dioxo-24-oxa-12λ6-thia-3,4,19,30-tetrazapentacyclo[23.3.1.12,5.015,23.016,20]triaconta-1(29),2(30),4,15,17,20,22,25,27-nonaen-6-yl)phenol]
- DSLS 3D (100 μM ΔT) (NBD1): B (a value above 5 °C and less than or equal to 10 °C is marked “B”)
- TECC (AUC, 10 μM) (CFTR): A (a TECC value less than 12 is marked “A”)

SMILES: C/C(C(=O)O)=C(/C)c1cccc(C2(C)CCCC(C)(C)CS(=O)(=O)CCc3c(c(F)cc4[nH]ccc34)Oc3ccc(F)c(c3)-c3nc2nn3C)c1 (stereo not shown) [Compound 155, (E)-3-[3-(22,28-Difluoro-3,6,10,10-tetramethyl-12,12-dioxo-24-oxa-12λ6-thia-3,4,19,30-tetrazapentacyclo[23.3.1.12,5.015,23.016,20]triaconta-1(29),2(30),4,15,17,20,22,25,27-nonaen-6-yl)phenyl]-2-methyl-but-2-enoic Acid]
- DSLS 3D (100 μM ΔT) (NBD1): C (a value greater than 10 °C and less than or equal to 25 °C is marked “C”)
- TECC (AUC, 10 μM) (CFTR): A (a TECC value less than 12 is marked “A”)

SMILES: CC(C(=O)O)C(C)c1cccc(C2(C)CCCC(C)(C)CS(=O)(=O)CCc3c(c(F)cc4[nH]ccc34)Oc3ccc(F)c(c3)-c3nc2nn3C)c1 (stereo not shown) [Compound 156, 3-[3-(22,28-Difluoro-3,6,10,10-tetramethyl-12,12-dioxo-24-oxa-12λ6-thia-3,4,19,30-tetrazapentacyclo[23.3.1.12,5.015,23.016,20]triaconta-1(29),2(30),4,15,17,20,22,25,27-nonaen-6-yl)phenyl]-2-methyl-butanoic Acid]
- DSLS 3D (100 μM ΔT) (NBD1): C (a value greater than 10 °C and less than or equal to 25 °C is marked “C”)
- TECC (AUC, 10 μM) (CFTR): B (a value between 12-20 is marked “B”)

SMILES: COC(=O)C(C)CCc1cccc(C2(C)CCCC(C)(C)CS(=O)(=O)CCc3c(c(F)cc4[nH]ccc34)Oc3ccc(F)c(c3)-c3nc2nn3C)c1 (stereo not shown) [Compound 159, Methyl 4-[3-(22,28-difluoro-3,6,10,10-tetramethyl-12,12-dioxo-24-oxa-12λ6-thia-3,4,19,30-tetrazapentacyclo[23.3.1.12,5.015,23.016,20]triaconta-1(29),2(30),4,15,17,20,22,25,27-nonaen-6-yl)phenyl]-2-methyl-butanoate]
- DSLS 3D (100 μM ΔT) (NBD1): A (an ΔTagg value less than or equal to 5 °C is marked “A”)
- TECC (AUC, 10 μM) (CFTR): B (a value between 12-20 is marked “B”)

SMILES: CC(CCc1cccc(C2(C)CCCC(C)(C)CS(=O)(=O)CCc3c(c(F)cc4[nH]ccc34)Oc3ccc(F)c(c3)-c3nc2nn3C)c1)C(=O)O (stereo not shown) [Compound 160, 4-[3-(22,28-Difluoro-3,6,10,10-tetramethyl-12,12-dioxo-24-oxa-12λ6-thia-3,4,19,30-tetrazapentacyclo[23.3.1.12,5.015,23.016,20]triaconta-1(29),2(30),4,15,17,20,22,25,27-nonaen-6-yl)phenyl]-2-methyl-butanoic Acid]
- DSLS 3D (100 μM ΔT) (NBD1): C (a value greater than 10 °C and less than or equal to 25 °C is marked “C”)
- TECC (AUC, 10 μM) (CFTR): A (a TECC value less than 12 is marked “A”)

SMILES: C[C@@H](Cc1cccc(C2CCCC(C)(C)CS(=O)(=O)CCc3c(c(F)cc4[nH]ccc34)C(=O)c3cccc(c3)-c3ccn2n3)c1)C(=O)O (stereo partly drawn) [Compound 163, (2S)-3-[3-(22-Fluoro-10,10-dimethyl-12,12,24-trioxo-12λ6-thia-5,19,30-triazapentacyclo[23.3.1.12,5.015,23.016,20]triaconta-1(29),2(30),3,15,17,20,22,25,27-nonaen-6-yl)phenyl]-2-methyl-propanoic Acid]
- DSLS 3D (100 μM ΔT) (NBD1): A (an ΔTagg value less than or equal to 5 °C is marked “A”)
- TECC (AUC, 10 μM) (CFTR): A (a TECC value less than 12 is marked “A”)

SMILES: C[C@H](Cc1cccc(C2CCCC(C)(C)CS(=O)(=O)CCc3c(c(F)cc4[nH]ccc34)C(=O)c3cccc(c3)-c3ccn2n3)c1)C(=O)O (stereo partly drawn) [Compound 164, (2R)-3-[3-(22-Fluoro-10,10-dimethyl-12,12,24-trioxo-12λ6-thia-5,19,30-triazapentacyclo[23.3.1.12,5.015,23.016,20]triaconta-1(29),2(30),3,15,17,20,22,25,27-nonaen-6-yl)phenyl]-2-methyl-propanoic acid]
- DSLS 3D (100 μM ΔT) (NBD1): A (an ΔTagg value less than or equal to 5 °C is marked “A”)
- TECC (AUC, 10 μM) (CFTR): A (a TECC value less than 12 is marked “A”)

SMILES: Cn1nc2nc1-c1cc(ccc1F)Oc1c(F)cc3[nH]ccc3c1CCS(=O)(=O)CC(C)(C)CCCC2(C)c1cccc(CC(C(=O)O)C(F)(F)F)c1 (stereo not shown) [Compound 168, 2-[[3-(22,28-Difluoro-3,6,10,10-tetramethyl-12,12-dioxo-24-oxa-12λ6-thia-3,4,19,30-tetrazapentacyclo[23.3.1.12,5.015,23.016,20]triaconta-1(29),2(30),4,15,17,20,22,25,27-nonaen-6-yl)phenyl]methyl]-3,3,3-trifluoro-propanoic acid]
- DSLS 3D (100 μM ΔT) (NBD1): C (a value greater than 10 °C and less than or equal to 25 °C is marked “C”)
- TECC (AUC, 10 μM) (CFTR): B (a value between 12-20 is marked “B”)

SMILES: Cc1cn2nc1-c1cccc(c1)C(=O)c1c(F)cc3[nH]ccc3c1CCS(=O)(=O)CC(C)(C)CCCC2c1cccc(C[C@H](C)C(=O)O)c1 (stereo partly drawn) [Compound 170, (2S)-3-[3-(22-Fluoro-3,10,10-trimethyl-12,12,24-trioxo-12λ6-thia-5,19,30-triazapentacyclo[23.3.1.12,5.015,23.016,20]triaconta-1(29),2(30),3,15,17,20,22,25,27-nonaen-6-yl)phenyl]-2-methyl-propanoic Acid]
- DSLS 3D (100 μM ΔT) (NBD1): A (an ΔTagg value less than or equal to 5 °C is marked “A”)
- TECC (AUC, 10 μM) (CFTR): A (a TECC value less than 12 is marked “A”)

Reference: US12649750B2, “Macrocyclic compounds, compositions, and methods of using thereof” (Sionna Therapeutics Inc., priority 2022, dated 2026)
